Measured values as given in the NIST ThermoML archive (doi:10.1021/acs.jced.5b00838).
± gives the expanded uncertainty stated by the source.

Columns and labels:
[1] = 101.33 kPa, Liquid, Vibrating tube method
[2] = excess molar enthalpy (molar enthalpy of mixing); xn = mol fraction of the nth substance listed; details: 100 kPa, Liquid, isothermal titration calorimetry

CCCCCCOCC [1-ethoxyhexane]
[1]
Details	mass density [kg/m3]
288.15 K	775.8 ± 1.6
293.15 K	771.47 ± 1.6
298.15 K	767.15 ± 1.6
303.15 K	762.8 ± 1.5
308.15 K	758.45 ± 1.5
313.15 K	754.06 ± 1.5
318.15 K	749.66 ± 1.5
323.15 K	745.27 ± 1.5

CCCCCCCOC [1-methoxyheptane]
[1]
Details	mass density [kg/m3]
288.15 K	783.89 ± 1.6
293.15 K	779.71 ± 1.6
298.15 K	775.52 ± 1.6
303.15 K	771.31 ± 1.6
308.15 K	767.09 ± 1.5
313.15 K	762.85 ± 1.5
318.15 K	758.57 ± 1.5
323.15 K	754.3 ± 1.5

CCCCCOCCC [1-propoxypentane]
[1]
Details	mass density [kg/m3]
288.15 K	773.45 ± 1.6
293.15 K	769.12 ± 1.5
298.15 K	764.78 ± 1.5
303.15 K	760.4 ± 1.5
308.15 K	756.01 ± 1.5
313.15 K	751.6 ± 1.5
318.15 K	747.19 ± 1.5
323.15 K	742.73 ± 1.5

CCCOCCC(C)C [3-methyl-1-propoxybutane]
[1]
Details	mass density [kg/m3]
288.15 K	768.79 ± 1.6
293.15 K	764.43 ± 1.5
298.15 K	760.04 ± 1.5
303.15 K	755.62 ± 1.5
308.15 K	751.22 ± 1.5
313.15 K	746.78 ± 1.5
318.15 K	742.31 ± 1.5
323.15 K	737.84 ± 1.5

CCCOCCC(C)C [3-methyl-1-propoxybutane] + CC#N
[2]
Details	excess molar enthalpy [kcal/mol]
298.15 K, x2 = 0.0312	0.0349 ± 0.000598
298.15 K, x2 = 0.0606	0.0693 ± 0.00098
298.15 K, x2 = 0.0882	0.0976 ± 0.00131
298.15 K, x2 = 0.1142	0.122 ± 0.0016
298.15 K, x2 = 0.1388	0.144 ± 0.00186
298.15 K, x2 = 0.1841	0.178 ± 0.00229
298.15 K, x2 = 0.2249	0.204 ± 0.00263
298.15 K, x2 = 0.2618	0.224 ± 0.00287
298.15 K, x2 = 0.3259	0.253 ± 0.00311
298.15 K, x2 = 0.3798	0.271 ± 0.00335
298.15 K, x2 = 0.4258	0.281 ± 0.00359
298.15 K, x2 = 0.4654	0.286 ± 0.00359
298.15 K, x2 = 0.5079	0.289 ± 0.00359
298.15 K, x2 = 0.5442	0.289 ± 0.00359
298.15 K, x2 = 0.5756	0.287 ± 0.00359
298.15 K, x2 = 0.6028	0.284 ± 0.00359
298.15 K, x2 = 0.6559	0.274 ± 0.00335
298.15 K, x2 = 0.6774	0.269 ± 0.00335
298.15 K, x2 = 0.6994	0.262 ± 0.00335
298.15 K, x2 = 0.7186	0.255 ± 0.00311
298.15 K, x2 = 0.7355	0.248 ± 0.00311
298.15 K, x2 = 0.7504	0.241 ± 0.00311
298.15 K, x2 = 0.7638	0.234 ± 0.00287
308.15 K, x2 = 0.0302	0.0413 ± 0.000669
308.15 K, x2 = 0.0586	0.0789 ± 0.0011
308.15 K, x2 = 0.0854	0.11 ± 0.00148
308.15 K, x2 = 0.1107	0.136 ± 0.00179
308.15 K, x2 = 0.1347	0.158 ± 0.00206
308.15 K, x2 = 0.1789	0.195 ± 0.00239
308.15 K, x2 = 0.2188	0.223 ± 0.00287
308.15 K, x2 = 0.2551	0.245 ± 0.00311
308.15 K, x2 = 0.2881	0.262 ± 0.00335
308.15 K, x2 = 0.3183	0.275 ± 0.00359
308.15 K, x2 = 0.3716	0.293 ± 0.00359
308.15 K, x2 = 0.4172	0.304 ± 0.00382
308.15 K, x2 = 0.4567	0.31 ± 0.00382
308.15 K, x2 = 0.4992	0.313 ± 0.00382
308.15 K, x2 = 0.5356	0.313 ± 0.00382
308.15 K, x2 = 0.567	0.311 ± 0.00382
308.15 K, x2 = 0.5944	0.307 ± 0.00382
308.15 K, x2 = 0.6231	0.302 ± 0.00382
308.15 K, x2 = 0.648	0.295 ± 0.00382
308.15 K, x2 = 0.6698	0.289 ± 0.00359
308.15 K, x2 = 0.692	0.281 ± 0.00359
308.15 K, x2 = 0.7115	0.274 ± 0.00359
308.15 K, x2 = 0.7146	0.269 ± 0.00335
308.15 K, x2 = 0.7286	0.266 ± 0.00335
308.15 K, x2 = 0.7356	0.26 ± 0.00335
308.15 K, x2 = 0.7438	0.259 ± 0.00335
308.15 K, x2 = 0.7574	0.252 ± 0.00311
308.15 K, x2 = 0.7579	0.249 ± 0.00311
308.15 K, x2 = 0.7816	0.236 ± 0.00311
308.15 K, x2 = 0.8068	0.219 ± 0.00287
308.15 K, x2 = 0.8337	0.2 ± 0.00263
308.15 K, x2 = 0.8507	0.186 ± 0.00239
308.15 K, x2 = 0.8684	0.17 ± 0.0022
308.15 K, x2 = 0.8869	0.151 ± 0.00645
308.15 K, x2 = 0.9061	0.13 ± 0.00669
308.15 K, x2 = 0.9263	0.107 ± 0.00717
308.15 K, x2 = 0.9401	0.0886 ± 0.00765
308.15 K, x2 = 0.9544	0.0689 ± 0.00813
308.15 K, x2 = 0.9691	0.0474 ± 0.0086
308.15 K, x2 = 0.9843	0.0234 ± 0.00908

CC#N [acetonitrile]
[1]
Details	mass density [kg/m3]
298.15 K	776.51 ± 1.6
303.15 K	771.06 ± 1.6
308.15 K	765.59 ± 1.5
313.15 K	760.1 ± 1.5
318.15 K	754.56 ± 1.5
323.15 K	748.99 ± 1.5

CCCCOCC(C)C [butyl isobutyl ether]
[1]
Details	mass density [kg/m3]
288.15 K	764.07 ± 1.6
293.15 K	759.72 ± 1.5
298.15 K	755.31 ± 1.5
303.15 K	750.87 ± 1.5
308.15 K	746.45 ± 1.5
313.15 K	741.98 ± 1.5
318.15 K	737.58 ± 1.5
323.15 K	732.99 ± 1.5

CCCCOCC(C)C [butyl isobutyl ether] + CC#N
[2], 298.15 K
Details	excess molar enthalpy [kcal/mol]
x2 = 0.0314	0.0454 ± 0.000717
x2 = 0.061	0.0839 ± 0.00117
x2 = 0.0887	0.116 ± 0.00153
x2 = 0.1149	0.143 ± 0.00186
x2 = 0.1396	0.167 ± 0.00215
x2 = 0.1851	0.204 ± 0.00263
x2 = 0.2261	0.233 ± 0.00287
x2 = 0.2631	0.255 ± 0.00335
x2 = 0.2967	0.273 ± 0.00335
x2 = 0.3275	0.286 ± 0.00359
x2 = 0.3815	0.302 ± 0.00382
x2 = 0.4274	0.31 ± 0.00382
x2 = 0.4671	0.315 ± 0.00406
x2 = 0.5097	0.317 ± 0.00406
x2 = 0.5459	0.316 ± 0.00406
x2 = 0.5772	0.311 ± 0.00382
x2 = 0.6045	0.308 ± 0.00382
x2 = 0.6329	0.301 ± 0.00382
x2 = 0.6575	0.295 ± 0.00382
x2 = 0.6789	0.289 ± 0.00359
x2 = 0.7009	0.282 ± 0.00359
x2 = 0.7183	0.275 ± 0.00359
x2 = 0.72	0.275 ± 0.00359
x2 = 0.7368	0.268 ± 0.00335
x2 = 0.7392	0.267 ± 0.00335
x2 = 0.7517	0.261 ± 0.00335
x2 = 0.7613	0.256 ± 0.00335
x2 = 0.765	0.254 ± 0.00311
x2 = 0.7847	0.242 ± 0.00311
x2 = 0.8097	0.226 ± 0.00287
x2 = 0.8362	0.207 ± 0.00263
x2 = 0.853	0.193 ± 0.00239
x2 = 0.8705	0.177 ± 0.00227
x2 = 0.8887	0.158 ± 0.00206
x2 = 0.9077	0.137 ± 0.00179
x2 = 0.9275	0.112 ± 0.00151
x2 = 0.9411	0.0935 ± 0.00129
x2 = 0.9552	0.073 ± 0.00105
x2 = 0.9697	0.0503 ± 0.000789
x2 = 0.9846	0.0253 ± 0.00055
